Key:
Assay in all cases: relative viability (nuclei count vs DMSO), 5 days (fraction); higher = more cells survive
[1] = compound: COc1cc2ncn(-c3cc(OCc4ccccc4C(F)(F)F)c(C(N)=O)s3)c2cc1OC + CC(C)C[C@H](NC(=O)[C@H](Cc1ccccc1)NC(=O)c1cnccn1)B(O)O [Bortezomib] (partner 0.002 µM)
Outline: (§1)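 After 5 days of treatment, lung cancer cells in 1536-well plates were fixed and stained in a single step (final 0.05% Triton X-100, 1% formaldehyde, 1 ug/ml Hoechst) and their nuclei counted on 4× images. Treatment had been applied by pin tool the day after seeding as one drug alone or as a fixed anchor-drug dose with five library-drug doses (not always all listed) in √10 steps. Relative viability is the nuclei count of treated wells divided by that of vehicle wells, and values are medians of duplicate plates.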

[2] = compound: COc1cc2ncn(-c3cc(OCc4ccccc4C(F)(F)F)c(C(N)=O)s3)c2cc1OC + CS(=O)(=O)N1CCN(Cc2cc3nc(-c4cccc5[nH]ncc45)nc(N4CCOCC4)c3s2)CC1 [Pictilisib] (partner 1 µM)
Outline: as §1

[3] = compound: COc1cc2ncn(-c3cc(OCc4ccccc4C(F)(F)F)c(C(N)=O)s3)c2cc1OC + COc1cc2c(Oc3ccc(NC(=O)C4(C(=O)Nc5ccc(F)cc5)CC4)cc3F)ccnc2cc1OCCCN1CCOCC1 [Foretinib] (partner 0.25 µM)
Outline: as §1

[4] = compound: COc1cc2ncn(-c3cc(OCc4ccccc4C(F)(F)F)c(C(N)=O)s3)c2cc1OC + CC(=O)c1c(C)c2cnc(Nc3ccc(N4CCNCC4)cn3)nc2n(C2CCCC2)c1=O [Palbociclib] (partner 0.5 µM)
Outline: as §1

| Cell Line | relative viability ([1]; first compound 0.05 µM) | relative viability ([1]; first compound 0.1581 µM) | relative viability ([1]; first compound 0.5 µM) | relative viability ([1]; first compound 1.581 µM) | relative viability ([1]; first compound 5 µM) | relative viability ([2]; first compound 0.05 µM) | relative viability ([2]; first compound 0.1581 µM) | relative viability ([2]; first compound 0.5 µM) | relative viability ([2]; first compound 1.581 µM) | relative viability ([2]; first compound 5 µM) | relative viability ([3]; first compound 0.05 µM) | relative viability ([3]; first compound 0.1581 µM) | relative viability ([3]; first compound 0.5 µM) | relative viability ([3]; first compound 1.581 µM) | relative viability ([3]; first compound 5 µM) | relative viability ([4]; first compound 0.05 µM) | relative viability ([4]; first compound 0.1581 µM) | relative viability ([4]; first compound 0.5 µM) | relative viability ([4]; first compound 1.581 µM) | relative viability ([4]; first compound 5 µM) |
| --- | --- | --- | --- | --- | --- | --- | --- | --- | --- | --- | --- | --- | --- | --- | --- | --- | --- | --- | --- | --- |
| HCC-15 | 0.99 | 0.89 | 0.785 | 0.142 | 0.114 | 0.69 | 0.707 | 0.549 | 0.163 | 0.125 | 0.98 | 0.919 | 0.334 | 0.16 | 0.124 | 0.729 | 0.702 | 0.519 | 0.167 | 0.141 |
| HCC-44 | 0.949 | 0.874 | 0.714 | 0.127 | 0.107 | 0.76 | 0.601 | 0.632 | 0.104 | 0.11 | – | – | – | – | – | 1.02 | 1.01 | 0.925 | 0.383 | 0.35 |
| HCC-78 | 0.472 | 0.496 | 0.39 | 0.238 | 0.227 | 0.221 | 0.188 | 0.186 | 0.206 | 0.186 | 0.574 | 0.585 | 0.469 | 0.327 | 0.379 | 0.497 | 0.478 | 0.435 | 0.406 | 0.357 |
| IA-LM | 0.747 | 0.479 | 0.0694 | 0.0622 | 0.0584 | 0.46 | 0.262 | 0.0711 | 0.0659 | 0.0766 | 1.16 | 0.987 | 0.328 | 0.0521 | 0.0505 | – | – | – | – | – |
| LK-2 | – | – | – | – | – | 0.548 | 0.566 | 0.307 | 0.263 | 0.306 | 1.27 | 0.987 | 0.266 | 0.163 | 0.135 | 0.78 | 0.293 | 0.444 | 0.252 | 0.113 |
| NCI-H358 | – | – | – | – | – | 0.362 | 0.347 | 0.293 | 0.148 | 0.14 | 0.724 | 0.71 | 0.484 | 0.0999 | 0.0726 | 0.139 | 0.126 | 0.11 | 0.0792 | 0.0843 |
| NCI-H522 | – | – | – | – | – | – | – | – | – | – | – | – | – | – | – | 0.886 | 0.866 | 0.842 | 1.01 | 0.401 |
| NCI-H596 | – | 1.11 | 0.828 | 0.638 | 0.312 | 0.393 | 0.405 | 0.371 | 0.191 | 0.178 | 1.03 | 0.908 | 0.481 | 0.307 | 0.242 | – | – | – | – | – |
| NCI-H1395 | – | – | – | – | – | 0.609 | 0.686 | 0.461 | 0.635 | 0.438 | 0.932 | 1.01 | 0.686 | 0.448 | 0.556 | 0.614 | 0.763 | 0.507 | 0.377 | 0.28 |

Reference: the supplement of paper PMC10307832
